# Source: publication PMC7551591, “The Effect of Resveratrol or Curcumin on Head and Neck Cancer Cells Sensitivity to the Cytotoxic Effects of Cisplatin” (Nutrients, 2020)
# Experiments:
# Assay type in all cases: cell-based, human
# [1] = tested on: p21 protein (CIP1/CDKN1A) expression in HUVEC; assay: Total p21 protein ELISA in cell lysates, normal cells; details: 24 h; for n-fold p21 Protein Expression HUVEC: vs control
# Description: (§1) After incubation, cells were washed twice with ice-cold PBS, scraped, pelleted and lysed in RIPA buffer (Pierce) supplemented with protease inhibitor cocktail (Roche) and phosphatase inhibitor (Roche) for 30 min on ice. The lysates were transfered into microcentrifuge tubes and centrifuged at 14,000× g for 5 min at 4 °C followed by sonication (10–15 s × 3). The supernatants were collected into clean microcentrifuge tubes and stored at −80 °C. Lysates protein concentration were quantified by BCA protein assay kit (Thermo Scientific) and aliquots of 50 μg of total cell lysate were used for ELISA assay.
# (§2) DuoSetR IC ELISA-Human Total p21/CIP1/CDKN1A(: DYC1047-2) was purchased from R&D Systems Inc. and contains the basic components required for the development of sandwich ELISAs to measure human p21 protein also known as CIP1 and CDKN1A in cell lysates. An immobilized capture antibody specifically binds human p21. After washing away unbound material, a biotinylated detection antibody specific for human p21 is used to detect the captured protein, utilizing a standard Streptavidin-HRP format. All experiments were performed in triplicates and absorbance was measured at λ = 450 nm using a Dynex plate reader.
# (§3) In cancer development and evolution p21 protein might acts as an oncogene or tumor suppressor and for this reason it could be an important player in processes such as the cancer aggressiveness or the response to chemotherapy. In this study, using ELISA assay we analyzed the expression level of p21 in the tumor cells (PE-CA/PJ49) compared to a normal cells (HUVEC).
# [2] = tested on: PE/CA-PJ49 tumor cells; assay: MTS cell proliferation assay (CellTiter 96), tumor cells; details: 24 h, PE/CA-PJ49 vs HUVEC
# Description: In order to determine the effect of CRM or RSV on proliferative activity of cisplatin treated cells was used the Promega CellTiter 96® AQueous One Solution Cell Proliferation Assay, a test that is based on the reduction of yellow MTS tetrazolium salt by the viable cells and generation of colored formazan soluble in the culture medium. The product was spectrophotometrically quantified by measuring the absorbance at λ = 490 nm using a Dynex plate reader (DYNEX Technologies-MRS, Chantilly, VA, USA). Results were expressed as mean values of three determinations ± standard deviation (SD). Untreated cells served as control and considered to have a proliferation index (PI = absorbance of treated cells/absorbance of untreated cells) equal to 1.
# [3] = tested on: p21 protein (CIP1/CDKN1A) expression in PE/CA-PJ49; assay: Total p21 protein ELISA in cell lysates, tumor cells; details: 24 h; for n-fold p21 Protein Expression PE/CA-PJ49: vs control
# Description: as §1, §2, §3
# [4] = tested on: PE/CA-PJ49 tumor cells; assay: MTT drug sensitivity (viability) assay, tumor cells; details: 24 h; for IC50: Homo sapiens; for IC50 / IC 25: MTT; for Selectivity Index (SI): IC50 in HUVEC / IC50 in PE/CA-PJ49
# Description: The MTT assay is based on the ability of viable cells to reduce the reagent 3-(4,5-dimethylthiazol-2-yl)-2,5-diphenyltetrazolium bromide to colored formazan compounds [48]. Because the transformation is only possible in viable cells, the amount of blue formazan is proportional to the number of viable cells and thus, a linear dependence exists between cell activity and absorbance. Cells were seeded in triplicate in 96-well plates at a density of 5000 cells/well, incubated at 37 °C for 24 h. […] After the incubation period, 20 μL MTT (5 mg/mL in PBS) was added and further incubated for 4 h. The supernatant was removed, and the formazan product was analyzed spectrophotometrically (570 nm) after dissolution in DMSO. Wells without cells serve as a blank, and their absorbance was subtracted from the other results. Untreated cells were used as control and their viability was assumed as 100%. Results were expressed as mean values of three determinations ± standard deviation (SD). Data are presented as percent of cell viability and compared to untreated [Viability% = (T − B)/(U − B) × 100, {where T = absorbance of treated cells; U = absorbance of untreated cells, B = absorbance of blank}]. Once percent viability was obtained, the drug response curve was generated, and inhibitory concentration (IC50 and IC25) was calculated using GraphPad Prism version 5.01 [49].
# SI values of more than 2 were considered as indicative of high selectivity.
# The anticancer cytotoxic activity in vitro was evaluated by the MTT assay. […] The most widely used and informative measure of a drug’s efficacy is IC50-the half-maximal inhibitory concentration. IC50 was determined at half of the difference between the maximum (plateau) and minimum absorbance values, by plotting the absorbance value at 570 nm (Y axis) versus the concentration of the compound analysed (X axis). The IC50 values were reported as a mean of three independent experiments ± standard deviation (S.D.).
# [5] = tested on: PE/CA-PJ49 tumor cells; assay: Cell cycle phase distribution by PI flow cytometry, tumor cells; details: 24 h, RSV 40 μM
# Description: For analysis of cell-cycle distribution, the cells were collected after treatment, fixed with 70% ethanol for at least one hour at 4 °C. The cells were stained with propidium iodide (PI) an agent which intercalates into the major groove of double-stranded DNA and produces a highly fluorescent adduct that can be excited at 488 nm with a broad emission around 600 nm. Since PI can also bind to double-stranded RNA, it is necessary to treat the cells with RNase for optimal DNA resolution. Cells (1×10^6 cells/mL) were washed in PBS and centrifuge at 300× g, 5 min at 4 °C. The pellet of the cells were incubated for 10 min at 37 °C with 0.5 mg/sample RNase A and then was added 10 μg/sample of PI staining solution to cell pellet, mix well and incubated 10 min at 37 °C. The samples stored at 4 °C until analyzed by flow cytometry. A minimum of 20,000 events for each sample were collected using a FACS CantoII flow cytometer and ModFIT software (BectonDickinson) and used to determine the cell cycle phase distribution after debris exclusion.
# The progression through the cell cycle phases induced by treatment were evaluated by flow cytometry using a FACSCanto II flow cytometer. Data analysis were performed using the ModFit 3.2 program which offers the possibility of evaluating the cell cycle phases distribution (G0/G1, S, G2 + M).
IC50 ([4]; PE/CA-PJ49) [µM],SMILES,p21 pg/mL HUVEC ([1]; 40 μM RSV) [pg/mL],n-fold p21 Protein Expression HUVEC ([1]; 40 μM RSV),"proliferation (index proliferation, IP) ([2]; 40 μM RSV)",p21 pg/mL PE/CA-PJ49 ([3]; 40 μM RSV) [pg/mL],n-fold p21 Protein Expression PE/CA-PJ49 ([3]; 40 μM RSV),Selectivity Index (SI) [4],IC 25 ([4]; PE/CA-PJ49) [µM],"cell viability (MTT) ([4]; PE/CA-PJ49, RSV 40 μM vs untreated cells)",G0/G1% [5] [%],G2/M% [5] [%],p21 pg/mL HUVEC ([1]; 15 μM CRM) [pg/mL],n-fold p21 Protein Expression HUVEC ([1]; 15 μM CRM),proliferative process (IP) ([2]; 15 μM CRM),p21 pg/mL PE/CA-PJ49 ([3]; 15 μM CRM) [pg/mL],n-fold p21 Protein Expression PE/CA-PJ49 ([3]; 15 μM CRM),"cell viability (MTT) ([4]; 15 μM CRM, PE/CA-PJ49 vs HUVEC)"
46.8 ± 2.6,"Oc1ccc(C=Cc2cc(O)cc(O)c2)cc1 [RSV, 3,5,4′-trihydroxystilbene]",148,0.81,affected the proliferation of tumor cells PE/CA-PJ49 much more than the one of normal cells HUVEC,1550,2.48,2.36,17.6 ± 1.5,significantly affected,39.05,19.41,–,–,–,–,–,–
16.3 ± 3.4,"COc1cc(/C=C/C(=O)CC(=O)/C=C/c2ccc(O)c(OC)c2)ccc1O [CRM, Curcumin]",–,–,–,–,–,3.66,7.9 ± 1.8,–,–,–,221,1.21,much more intense decrease of the proliferative process,941,1.51,reduced tumor cell viability compared to normal cells HUVEC
